In patent US20230416205A1, “COMPOUNDS, COMPOSITIONS, AND METHODS” (Denali Therapeutics Inc, priority 2020, published 2023):
Where two headings read alike, the source gives them in different places.

Test system: NLRP3
Experiment: IL-1β secretion assay in PMA-differentiated, LPS/nigericin-stimulated THP-1 cells (384-well, ELISA read-out)
Type: cell-based, human
Outline: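 Secreted IL-1β quantified by capture ELISA from supernatants of PMA-differentiated THP-1 cells (30K per well). Sequence: LPS 25 ng/mL priming 2 h, compound 1 h, nigericin 2 h; dose-responses normalized between high (LPS plus 5 μM nigericin) and low (LPS alone) controls.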

[1] = Table 4, IL-1β secretion, LPS/nigericin-stimulated THP-1 cells, read-out: IC50
[2] = Homo sapiens, THP-1, IL-1β secretion, PMA-differentiated THP-1 cells, LPS then nigericin stimulation, ELISA read at 450 nm, read-out: Activity
[3] = Homo sapiens, THP-1, Table 4, IL-1β secretion, LPS/nigericin-stimulated THP-1 cells, read-out: IC50

| SMILES | IC50 [1] | IC50 [2] | IC50 [3] |
| --- | --- | --- | --- |
| N#Cc1cnc(NC(=O)CN2CC3(CC3(F)F)c3c(ccc(Br)c3F)C2=O)nc1 (single isomer, unassigned) [Example 319, 2-[6-bromo-1′,1′,5-trifluoro-1-oxospiro[3H-isoquinoline-4,2′-cyclopropane]-2-yl]-N-(5-cyanopyrimidin-2-yl)acetamide] | 3.05 µM |  |  |
| N#Cc1cnc(NC(=O)CN2CC3(CC3(F)F)c3c(ccc(Br)c3F)C2=O)nc1 (single isomer, unassigned) [Example 320, 2-[6-bromo-1′,1′,5-trifluoro-1-oxospiro[3H-isoquinoline-4,2′-cyclopropane]-2-yl]-N-(5-cyanopyrimidin-2-yl)acetamide] | 0.014 µM |  |  |
| O=C(CN1CC2(CC2(F)F)c2c(ccc(Br)c2F)C1=O)Nc1ncc(C(F)(F)F)cn1 (single isomer, unassigned) [Example 323, 2-[6-bromo-1′,1′,5-trifluoro-1-oxospiro[3H-isoquinoline-4,2′-cyclopropane]-2-yl]-N-[5-(trifluoromethyl)pyrimidin-2-yl]acetamide] | > 10 µM |  |  |
| O=C(CN1CC2(CC2(F)F)c2c(ccc(Br)c2F)C1=O)Nc1ncc(C(F)(F)F)cn1 (single isomer, unassigned) [Example 324, 2-[6-bromo-1′,1′,5-trifluoro-1-oxospiro[3H-isoquinoline-4,2′-cyclopropane]-2-yl]-N-[5-(trifluoromethyl)pyrimidin-2-yl]acetamide] | 0.027 µM |  |  |
| CC1(O)CC(NC(=O)CN2CC3(CC3(F)F)c3c(ccc(Br)c3F)C2=O)C1 (single isomer, unassigned) [Example 325, N-(3-cis-hydroxy-3-methylcyclobutyl)-2-[6-bromo-1′,1′,5-trifluoro-1-oxospiro[3H-isoquinoline-4,2′-cyclopropane]-2-yl]acetamide] | > 1 µM |  |  |
| CC1(O)CC(NC(=O)CN2CC3(CC3(F)F)c3c(ccc(Br)c3F)C2=O)C1 (single isomer, unassigned) [Example 326, N-(3-cis-hydroxy-3-methylcyclobutyl)-2-[6-bromo-1′,1′,5-trifluoro-1-oxospiro[3H-isoquinoline-4,2′-cyclopropane]-2-yl]acetamide] | 0.013 µM |  |  |
| CC1(O)CC(NC(=O)CN2C[C@@]3(C[C@@H]3F)c3cc(C(F)(F)F)ccc3C2=O)C1 (single isomer, unassigned) [Example 327, N-(3-cis-hydroxy-3-methylcyclobutyl)-2-[(2′s,4r)-2′-fluoro-1-oxo-6-(trifluoromethyl)spiro[3H-isoquinoline-4,1′-cyclopropane]-2-yl]acetamide] | > 1 µM |  |  |
| CC1(O)CC(NC(=O)CN2C[C@@]3(C[C@@H]3F)c3cc(C(F)(F)F)ccc3C2=O)C1 (single isomer, unassigned) [Example 328, N-(3-cis-hydroxy-3-methylcyclobutyl)-2-[(2′s,4r)-2′-fluoro-1-oxo-6-(trifluoromethyl)spiro[3H-isoquinoline-4,1′-cyclopropane]-2-yl]acetamide] | 0.067 µM |  |  |
| O=C(CN1CC2(CC2)c2cc(Br)ccc2C1=O)N[C@@H]1C[C@H]2CC[C@@H]1O2 (stereo in doubt) [Example 17, 2-(6-bromo-1-oxospiro[3H-isoquinoline-4,1′-cyclopropane]-2-yl)-N-[(1S,2R,4R)-7-oxabicyclo[2.2.1]heptan-2-yl]acetamide] |  | < 10 µM | 4.19 µM |
| CCC1CN(CC(=O)Nc2ncncc2F)C(=O)c2ccc(Br)cc21 (stereo not drawn) [Example 1, 2-(6-bromo-4-ethyl-1-oxo-3,4-dihydroisoquinolin-2(1H)-yl)-N-(5-fluoropyrimidin-4-yl)acetamide] |  | < 10 µM | 1.38 µM |
| N#Cc1cnc(NC(=O)CN2CC3(CC3)c3cc(Br)ccc3C2=O)nc1 [Example 3] |  | < 10 µM | 0.047 µM |
| O=C(CN1CC2(CC2)c2cc(Br)ccc2C1=O)Nc1ncc(Cl)cn1 [Example 4] |  | < 10 µM | 0.039 µM |
| O=C(CN1CC2(CC2)c2cc(Br)ccc2C1=O)Nc1ncccn1 [Example 5] |  | < 10 µM | 0.216 µM |
| O=C(CN1CC2(CC2)c2cc(Br)ccc2C1=O)Nc1ncncc1F [Example 6] |  | < 10 µM | 0.141 µM |
| N#Cc1cnc(NC(=O)CN2CC3(CC3)c3cc(Br)ccc3C2=O)c(F)c1 [Example 7] |  | < 10 µM | 0.35 µM |
| O=C(CN1CC2(CC2)c2cc(Br)ccc2C1=O)Nc1ncc(Cl)cc1F [Example 8] |  | < 10 µM | 0.216 µM |
| O=C(CN1CC2(CC2)c2cc(Br)ccc2C1=O)Nc1ncc(C(F)(F)F)cc1F [Example 9] |  | < 10 µM | 0.4 µM |
| O=C(CN1CC2(CC2)c2cc(Br)ccc2C1=O)Nc1ccc(Cl)nn1 [Example 10] |  | < 10 µM | 1.3 µM |
| O=C(CN1CC2(CC2)c2cc(Br)ccc2C1=O)Nc1ccncc1F [Example 11] |  | < 10 µM | 0.531 µM |

| SMILES | IC50 [1] | IC50 [2] | IC50 [3] |
| --- | --- | --- | --- |
| O=C(CN1CC2(CC2)c2cc(Br)ccc2C1=O)Nc1ncc(F)cc1F [Example 12] |  | < 10 µM | 0.588 µM |
| O=C(CN1CC2(CC2)c2cc(Br)ccc2C1=O)NC12CC(C(F)(F)F)(C1)C2 [Example 13, 2-(6-bromo-1-oxospiro[3H-isoquinoline-4,1′-cyclopropane]-2-yl)-N-[3-(trifluoromethyl)-1-bicyclo[1.1.1]pentanyl]acetamide] |  | < 10 µM | 1.75 µM |
| N#CC12CC(NC(=O)CN3CC4(CC4)c4cc(Br)ccc4C3=O)(C1)C2 [Example 14, 2-(6-bromo-1-oxospiro[3H-isoquinoline-4,1′-cyclopropane]-2-yl)-N-(3-cyano-1-bicyclo[1.1.1]pentanyl)acetamide] |  | < 10 µM | 3.12 µM |
| O=C(CN1CC2(CC2)c2cc(Br)ccc2C1=O)NC1CCC(F)(F)CC1 [Example 15, 2-(6-bromo-1-oxospiro[3H-isoquinoline-4,1′-cyclopropane]-2-yl)-N-(4,4-difluorocyclohexyl)acetamide] |  | < 10 µM | 3.19 µM |
| O=C(CN1CC2(CC2)c2cc(Br)ccc2C1=O)N[C@@H]1C[C@@H]2CC[C@H]1O2 [Example 16, 2-(6-bromo-1-oxospiro[3H-isoquinoline-4,1′-cyclopropane]-2-yl)-N-[(1R,2R,4S)-7-oxabicyclo[2.2.1]heptan-2-yl]acetamide] |  | < 10 µM | 9.83 µM |
| CCN1CCCC(NC(=O)CN2CC3(CC3)c3cc(Br)ccc3C2=O)C1 (stereo not drawn) [Example 18, 2-(6-bromo-1-oxospiro[3H-isoquinoline-4,1′-cyclopropane]-2-yl)-N-(1-ethylpiperidin-3-yl)acetamide] |  | < 10 µM | 1.45 µM |
| C[C@]1(O)C[C@@H](NC(=O)CN2CC3(CC3)c3cc(Br)ccc3C2=O)C1 [Example 19, 2-(6-bromo-1-oxospiro[3H-isoquinoline-4,1′-cyclopropane]-2-yl)-N-(cis-3-hydroxy-3-methylcyclobutyl)acetamide] |  | < 10 µM | 0.153 µM |
| O=C(CN1CC2(CC2)c2cc(Br)ccc2C1=O)NC1CCn2nccc2C1 (stereo not drawn) [Example 20] |  | < 10 µM | 3.19 µM |
| CN1CC(NC(=O)CN2CC3(CC3)c3cc(Br)ccc3C2=O)CCC1=O (stereo not drawn) [Example 21, 2-(6-bromo-1-oxo-spiro[3H-isoquinoline-4,1′-cyclopropane]-2-yl)-N-(1-methyl-6-oxo-3-piperidyl)acetamide] |  | < 10 µM | 6.1 µM |
| CN1CCC(NC(=O)CN2CC3(CC3)c3cc(Br)ccc3C2=O)CC1=O (stereo not drawn) [Example 22, 2-(6-bromo-1-oxo-spiro[3H-isoquinoline-4,1′-cyclopropane]-2-yl)-N-(1-methyl-2-oxo-4-piperidyl)acetamide] |  | 10 to 15 µM | 10.9 µM |
| O=C(CN1CC2(CC2)c2cc(Br)ccc2C1=O)NC1CC2(CC2)C1 [Example 23, 2-(6-bromo-1-oxo-spiro[3H-isoquinoline-4,1′-cyclopropane]-2-yl)-N-spiro[2.3]hexan-5-yl-acetamide] |  | < 10 µM | 1.88 µM |
| O=C(CN1CC2(CC2)c2cc(Br)ccc2C1=O)NC1CCOC(C2CC2)C1 (stereo not drawn) [Example 24, 2-(6-bromo-1-oxo-spiro[3H-isoquinoline-4,1′-cyclopropane]-2-yl)-N-(2-cyclopropyltetrahydropyran-4-yl)acetamide] |  | < 10 µM | 7.17 µM |
| COCCN1CCCC(NC(=O)CN2CC3(CC3)c3cc(Br)ccc3C2=O)C1 (stereo not drawn) [Example 25, 2-(6-bromo-1-oxo-spiro[3H-isoquinoline-4,1′-cyclopropane]-2-yl)-N-[1-(2-methoxyethyl)-3-piperidyl]acetamide] |  | < 10 µM | 3.57 µM |
| CC1(C)CN(CC(=O)N[C@@H]2CCCN(C3CCC3)C2)C(=O)c2ccc(Br)cc21 [Example 26, (R)-2-(6-bromo-4,4-dimethyl-1-oxo-3,4-dihydroisoquinolin-2(1H)-yl)-N-(1-cyclobutylpiperidin-3-yl)acetamide] |  | < 10 µM | 0.445 µM |
| O=C(CN1CC2(CC2)c2cc(C(F)(F)F)ccc2C1=O)Nc1ncccn1 [Example 27, 2-[1-oxo-6-(trifluoromethyl)spiro[3H-isoquinoline-4,1′-cyclopropane]-2-yl]-N-pyrimidin-2-yl-acetamide] |  | < 10 µM | 0.291 µM |
| O=C(CN1CC2(CC2)c2cc(C(F)(F)F)ccc2C1=O)Nc1ncc(F)cn1 [Example 28] |  | < 10 µM | 0.373 µM |
| CC1CC12CN(CC(=O)Nc1ncccn1)C(=O)c1ccc(C(F)(F)F)cc12 (stereo not drawn) [Example 29, 2-[2′-methyl-1-oxo-6-(trifluoromethyl)spiro[3H-isoquinoline-4,1′-cyclopropane]-2-yl]-N-pyrimidin-2-yl-acetamide] |  | < 10 µM | 0.392 µM |
| CCC1(C)CN(CC(=O)Nc2ncccn2)C(=O)c2ccc(C(F)(F)F)cc21 (stereo not drawn) [Example 30, 2-[4-ethyl-4-methyl-1-oxo-6-(trifluoromethyl)-3H-isoquinolin-2-yl]-N-pyrimidin-2-ylacetamide] |  | > 15 µM | 15.1 µM |
